Results taken from US10369113B2, “Prostate specific membrane antigen (PSMA) targeted nanoparticles for therapy of prostate cancer” (The Johns Hopkins University, priority 2007, dated 2019).

Tested on: PSMA-expressing LNCaP human prostate cancer cells
Test: In vitro toxicity of nanoparticles (MTT assay after 15 min exposure)
Format: cell-based
Conditions: 48 hrs after 15 min exposure, 100 nM docetaxel equivalent, read-out: inhibition of cell growth
Method: The cytotoxicity of the nontargeted particles in that study was ascribed to a combination of nonspecific uptake and to the expected nonspecific release of docetaxel from the particle into the media over the exposure period. […] Following determination of the amount of docetaxel loading in the particles, PSMA-expressing LNCaP human prostate cancer cells were exposed to equimolar amounts (i.e. 100 nM) of loaded nanoparticles or free docetaxel. To minimize the effects of nonspecific endocytosis, cells were only exposed to test compounds for 15 min at which time cells were washed and then placed in drug free media. Cell counts were determined by converting absorbance from MTT assay to cell number based on a standard curve of absorbance from MTT assay of known amounts of LNCaP cells. In this assay, 48 hrs following exposure, the growth of cells exposed to the nontargeted nanoPEG particles was inhibited by 65% while cell growth was inhibited 89% by docetaxel and 95% by the nanoPSMAi2 particles. […]
Cytotoxicity assays were performed as described previously (Denmeade, S. R., et al. J Natl Cancer Inst, 95: 990-1000, 2003). […] Cells were then incubated in media at 37° C. and at the end of 48 hours and 96 hours, effects on cell growth were determined using the MTT assay (Promega, WI) according to manufacturer's instructions.

Compound: CC(=O)O[C@@]12CO[C@@H]1C[C@H](O)[C@@]1(C)C(=O)[C@H](O)C3=C(C)[C@@H](OC(=O)[C@H](O)[C@@H](NC(=O)OC(C)(C)C)c4ccccc4)C[C@@](O)([C@@H](OC(=O)c4ccccc4)[C@H]21)C3(C)C [docetaxel]
- inhibition at 0.1 µM: 89%
